{"source": "patent US20090234150A1", "about": "“Use of ppar-alpha agonists to treat skeletal muscle wasting disorders” (priority 2006, published 2009)", "test_system": "ischemic muscle necrosis", "settings": "wild type mice, 0.5 g/kg/day by gavage for 10 days prior to femoral artery ligation", "from_the_text": "To assess the muscle protective effect of the PPAR-alpha agonist fenofibrate, wild type mice received fenofibrate (0.5 g/kg/day; Cayman Chemical, Ann Arbor, Mich., USA) by gavage, or vehicle alone for 10 days prior to femoral artery ligation. Two days after femoral artery ligation muscle necrosis was subsequently analyzed on histological sections of the crural muscles.\nLimb ischemia was induced by high unilateral right or bilateral ligation of the femoral artery and vein, and of the cutaneous vessels branching from the caudal femoral artery, sparing the femoral nerve. Crural muscles were dissected and processed for histological analysis 2 d or 7 d after ligation.\nThe crural muscles were dissected, fixed in 4% PFA, dehydrated, embedded in paraffin, and sectioned at 10 μm thickness. Microscopic analysis was performed with a Zeiss Axioplan 2 imaging microscope, equipped with an Axiocam HrC camera and KS300 morphometry software (Zeiss). Capillary density, fiber size, and the cross-sectional area of viable and necrotic zones were quantified on eight entire sections (each 320 μm apart) of the crural muscles."}
{"smiles": "CC(C)OC(=O)C(C)(C)Oc1ccc(C(=O)c2ccc(Cl)cc2)cc1", "note": "[fenofibrate]", "values": [{"measurement": "prevention of ischemic muscle necrosis", "setting": "analysed two days after ligation, versus vehicle", "value": 60, "unit": "%"}, {"measurement": "% necrotic area/total cross-sectional area", "setting": "crural muscles two days after ligation, n=4, P=0.002 (vehicle 86.3±8.2%)", "value": "34.3±7", "unit": "%"}]}
